# Reference: PubChem BioAssay (NCI)
#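 These data come from cells grown in 96-well plates and exposed to compound for 48 hours at five concentrations. TGI marks complete inhibition of growth.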
# Assays:
# Assay in all cases: inhibition of tumour cell growth, NCI panel, 48 h
# 786-0 renal = system: 786-0 renal
# A498 renal = system: A498 renal
# A549 NSCLC = system: A549 NSCLC
# ACHN renal = system: ACHN renal
# BT-549 breast = system: BT-549 breast
# HCT-15 colon = system: HCT-15 colon
# KM12 colon = system: KM12 colon
# LOX IMVI melanoma = system: LOX IMVI melanoma
# OVCAR-5 ovarian = system: OVCAR-5 ovarian
# RPMI-8226 leukemia = system: RPMI-8226 leukemia
# SF-268 CNS = system: SF-268 CNS
# SF-539 CNS = system: SF-539 CNS
# SK-MEL-2 melanoma = system: SK-MEL-2 melanoma
# SK-OV-3 ovarian = system: SK-OV-3 ovarian
# TK-10 renal = system: TK-10 renal
# UACC-257 melanoma = system: UACC-257 melanoma
# UACC-62 melanoma = system: UACC-62 melanoma
Compound,TGI (786-0 renal),TGI (A498 renal),TGI (A549 NSCLC),TGI (ACHN renal),TGI (BT-549 breast),TGI (HCT-15 colon),TGI (KM12 colon),TGI (LOX IMVI melanoma),TGI (OVCAR-5 ovarian),TGI (RPMI-8226 leukemia),TGI (SF-268 CNS),TGI (SF-539 CNS),TGI (SK-MEL-2 melanoma),TGI (SK-OV-3 ovarian),TGI (TK-10 renal),TGI (UACC-257 melanoma),TGI (UACC-62 melanoma)
C=CC(C)CCC(C/C=C(\C)CCC=C(C)C)C(=C)CCCC(C)C (stereo unspecified),> 100 µM,> 100 µM,> 100 µM,> 100 µM,> 100 µM,> 100 µM,> 100 µM,> 100 µM,> 100 µM,> 100 µM,> 100 µM,> 100 µM,> 100 µM,> 100 µM,> 100 µM,> 100 µM,> 100 µM
C=CCNC1=C2C[C@@H](C)C[C@@H](OC)[C@H](OC(=O)CN)[C@H](C)/C=C(\C)[C@@H](OC(N)=O)[C@H](OC)/C=C\C=C(/C)C(=O)NC(=CC1=O)C2=O,20.7 µM,28.4 µM,21 µM,19.6 µM,28.3 µM,22.5 µM,9.87 µM,6.45 µM,25 µM,> 52.3 µM,29.7 µM,15.9 µM,18.7 µM,12.5 µM,14.2 µM,15.7 µM,12 µM
CCOC(=O)/C=C(/C(=O)OCC)n1ccc(=O)n(/C(=C/C(=O)OCC)C(=O)OCC)c1=O,5.86 µM,38.8 µM,32.7 µM,8.06 µM,30.2 µM,6.32 µM,33.9 µM,10.5 µM,31.2 µM,7.08 µM,43.9 µM,34.2 µM,17.6 µM,43.7 µM,17.6 µM,24.5 µM,28.3 µM
CCOC(=O)c1cnc(-n2[nH]c3c(c2=O)CCCC3)[nH]c1=O,> 100 µM,> 100 µM,> 100 µM,> 100 µM,> 100 µM,> 100 µM,> 100 µM,–,> 100 µM,> 100 µM,> 100 µM,> 100 µM,> 100 µM,> 100 µM,> 100 µM,> 100 µM,95.4 µM
C[C@]12[C@@H]3CC[C@H]1[C@@H](OC(=O)Nc1cc([N+](=O)[O-])cc([N+](=O)[O-])c1)C(=O)N2CC3,> 100 µM,> 100 µM,> 100 µM,> 100 µM,> 100 µM,> 100 µM,> 100 µM,> 100 µM,> 100 µM,> 100 µM,> 100 µM,–,> 100 µM,> 100 µM,> 100 µM,> 100 µM,> 100 µM
O=C=NCCCCCCN1C(=O)N2C(c3ccccc3)N(CCCCCCN=C=O)C(=O)N2C1c1ccccc1 (stereo unspecified),> 100 µM,> 100 µM,> 100 µM,> 100 µM,> 100 µM,> 100 µM,> 100 µM,> 100 µM,> 100 µM,> 100 µM,> 100 µM,> 100 µM,> 100 µM,–,> 100 µM,> 100 µM,–
CCS(=O)(=O)CCn1cnc2c1c(=O)n(C)c(=O)n2C,> 100 µM,> 100 µM,> 100 µM,> 100 µM,> 100 µM,> 100 µM,> 100 µM,> 100 µM,> 100 µM,–,> 100 µM,> 100 µM,> 100 µM,–,> 100 µM,> 100 µM,> 100 µM
Cc1cn(C2CC(N)C(C(=O)O)O2)c(=O)[nH]c1=O (stereo unspecified),> 100 µM,> 100 µM,> 100 µM,> 100 µM,> 100 µM,> 100 µM,> 100 µM,–,> 100 µM,> 100 µM,> 100 µM,> 100 µM,> 100 µM,> 100 µM,> 100 µM,> 100 µM,> 100 µM
Cc1c(C)c(S(=O)(=O)N(CCCN)OCCCN)c(C)c2c1OC(C)(C)C2,68 µM,42 µM,> 100 µM,> 100 µM,> 100 µM,> 100 µM,38.9 µM,34.9 µM,61.6 µM,> 100 µM,> 100 µM,–,26.7 µM,> 100 µM,> 100 µM,89.3 µM,> 100 µM
COC(=O)c1ccccc1/C=C1\Cc2cc(C)c(C)cc2C1=O,> 100 µM,> 100 µM,> 100 µM,> 100 µM,> 100 µM,> 100 µM,> 100 µM,> 100 µM,> 100 µM,> 100 µM,> 100 µM,> 100 µM,68.3 µM,–,86.6 µM,> 100 µM,> 100 µM
CCc1c(Cc2cc(C)cc(C)c2)n2c(nc1=O)SCC2CBr (stereo unspecified),> 50 µM,> 50 µM,> 50 µM,> 50 µM,> 50 µM,> 50 µM,> 50 µM,> 50 µM,> 50 µM,> 50 µM,> 50 µM,> 50 µM,> 50 µM,–,> 50 µM,> 50 µM,> 50 µM
CCOC(=O)/C=C1\c2ccccc2C(=O)N1CC(=O)OCC,> 100 µM,> 100 µM,> 100 µM,> 100 µM,> 100 µM,> 100 µM,> 100 µM,> 100 µM,> 100 µM,> 100 µM,> 100 µM,–,> 100 µM,> 100 µM,> 100 µM,> 100 µM,> 100 µM
O=C(c1ccccc1)c1sc2c(=O)c(C(=O)c3ccccc3)c(C(=O)c3ccccc3)sc2c(=O)c1C(=O)c1ccccc1,> 100 µM,> 100 µM,> 100 µM,> 100 µM,> 100 µM,> 100 µM,> 100 µM,> 100 µM,> 100 µM,–,> 100 µM,51.1 µM,> 100 µM,> 100 µM,> 100 µM,> 100 µM,> 100 µM
C=C(Cl)C(=C)CCC(Cl)C(C)C (stereo unspecified),> 100 µM,> 100 µM,> 100 µM,> 100 µM,> 100 µM,–,> 100 µM,> 100 µM,> 100 µM,> 100 µM,> 100 µM,> 100 µM,> 100 µM,> 100 µM,> 100 µM,> 100 µM,> 100 µM
CN1CCC23c4c5ccc(O)c4OC2c2[nH]c4ccccc4c2CC3(O)C1C5 (stereo unspecified),39.6 µM,38 µM,> 100 µM,65.1 µM,> 100 µM,> 100 µM,> 100 µM,54.7 µM,> 100 µM,55 µM,> 100 µM,–,39.9 µM,> 100 µM,43.5 µM,36.8 µM,53.5 µM
NNc1[nH]c(=S)[nH]c1C(N)=O,> 100 µM,> 100 µM,> 100 µM,–,> 100 µM,> 100 µM,> 100 µM,> 100 µM,> 100 µM,> 100 µM,> 100 µM,> 100 µM,> 100 µM,> 100 µM,> 100 µM,> 100 µM,> 100 µM
Cc1ccc(/C=C/C(=O)c2cc(CN(C)C)c(O)c(CN(C)C)c2)cc1,73.9 µM,95.5 µM,58.5 µM,90.8 µM,35.4 µM,45.4 µM,25.2 µM,21.2 µM,> 100 µM,48.3 µM,> 100 µM,34.9 µM,–,–,> 100 µM,27.4 µM,–
O=C(CCN1CCOCC1)Nc1ccc2sc3ccccc3c(=O)c2n1,> 100 µM,–,> 100 µM,> 100 µM,> 100 µM,> 100 µM,> 100 µM,> 100 µM,> 100 µM,> 100 µM,> 100 µM,> 100 µM,> 100 µM,> 100 µM,> 100 µM,> 100 µM,> 100 µM
CC1(C)CC(=O)c2c(nc(SSc3nc4c(c(-c5ccccc5)c3C#N)C(=O)CC(C)(C)C4)c(C#N)c2-c2ccccc2)C1,> 10 µM,> 10 µM,> 10 µM,> 10 µM,> 10 µM,> 10 µM,> 10 µM,> 10 µM,> 10 µM,> 10 µM,> 10 µM,> 10 µM,> 10 µM,> 10 µM,> 10 µM,> 10 µM,–
Cc1ccc(S(=O)(=O)N2CCCC2C(=O)O[C@H]2CC[C@H]3CC=C[C@H]32)cc1 (stereo partly specified),> 31.6 µM,89 µM,> 31.6 µM,> 31.6 µM,> 100 µM,–,> 100 µM,> 100 µM,> 100 µM,77.7 µM,> 100 µM,–,–,> 100 µM,–,67.4 µM,> 100 µM
c1ccc(C[n+]2cccc(-c3cc4ccccc4[nH]3)c2)cc1,> 100 µM,> 100 µM,> 100 µM,> 100 µM,36.6 µM,> 100 µM,32 µM,37.9 µM,> 100 µM,41.2 µM,> 100 µM,–,32.8 µM,> 100 µM,> 100 µM,32.3 µM,32.1 µM
Clc1nc2n(c1/C=C/c1cccs1)CCS2,95.5 µM,57.9 µM,> 100 µM,> 100 µM,90.4 µM,> 100 µM,> 100 µM,–,> 100 µM,48.7 µM,> 100 µM,–,> 100 µM,95.8 µM,> 100 µM,> 100 µM,> 100 µM
COC(=O)[C@@H]1C[C@@H]2c3ccccc3N(S(=O)(=O)c3ccccc3)[C@@H]2N1C(=O)OC,> 100 µM,–,> 100 µM,> 100 µM,> 100 µM,> 100 µM,> 100 µM,> 100 µM,> 100 µM,> 100 µM,> 100 µM,> 100 µM,> 100 µM,> 100 µM,> 100 µM,> 100 µM,> 100 µM
NC(=O)NC(=O)c1cccc(NC(=O)CBr)c1,< 0.0333 µM,0.532 µM,7.6 µM,1.4 µM,1.43 µM,0.384 µM,14.4 µM,0.193 µM,1.89 µM,0.306 µM,< 0.0275 µM,–,1.59 µM,0.963 µM,0.281 µM,0.623 µM,0.908 µM
COc1cccc(C2C3=C(COC3=O)Oc3cc4c(cc32)OCO4)c1 (stereo unspecified),> 66.4 µM,1.27 µM,> 100 µM,> 53.1 µM,> 100 µM,> 42.4 µM,6.43 µM,> 22.1 µM,> 90 µM,3.03 µM,> 62.6 µM,0.0667 µM,> 100 µM,–,93.6 µM,> 100 µM,> 100 µM
O=C(c1cccc(C(=O)c2ccc3c4c(cccc24)C(=O)N(c2ccccc2)C3=O)c1)c1ccc2c3c(cccc13)C(=O)N(c1ccccc1)C2=O,> 100 µM,69.5 µM,> 100 µM,> 100 µM,> 100 µM,> 100 µM,> 100 µM,> 100 µM,> 100 µM,> 100 µM,> 100 µM,> 100 µM,–,> 100 µM,> 100 µM,> 100 µM,> 100 µM
O=C1/C(=C/c2ccco2)N=C(c2ccccc2)N1c1cc2cc(Sc3ccccc3)ccc2[nH]1,> 25 µM,> 25 µM,> 25 µM,> 25 µM,> 25 µM,> 25 µM,–,> 25 µM,> 25 µM,2.4 µM,> 25 µM,> 25 µM,> 25 µM,–,–,–,> 25 µM
Cc1cc(OCC(=O)N/N=C/C(Br)=C/c2ccccc2)nc(SCC(=O)N/N=C/C(Br)=C/c2ccccc2)n1,> 100 µM,> 100 µM,–,> 100 µM,> 100 µM,> 100 µM,> 100 µM,> 100 µM,> 100 µM,> 100 µM,> 100 µM,–,–,–,–,> 100 µM,> 100 µM
